Row | SMILES | melting point [°C]
1 | O=C(CCc1oc(-n2cnc3ccccc32)nc1-c1ccc(Cl)cc1)NCc1cccc(-c2ccccc2)c1 [Example 177, 3-[2-(1H-benzimidazol-1-yl)-4-(4-chlorophenyl)-5-oxazolyl]-N-(3-phenylbenzyl)propionamide] | 201 to 202
2 | O=C(CCc1oc(-n2cnc3ccccc32)nc1-c1ccc(Cl)cc1)NCc1ccc(F)cc1Cl [Example 168, 3-[2-(1H-benzimidazol-1-yl)-4-(4-chlorophenyl)-5-oxazolyl]-N-(2-chloro-4-fluorobenzyl)propionamide] | 196 to 198
3 | O=C(CCc1oc(-n2cnc3ccccc32)nc1-c1ccc(Cl)cc1)NCc1c(F)cccc1F [Example 156, 3-[2-(1H-benzimidazol-1-yl)-4-(4-chlorophenyl)-5-oxazolyl]-N-(2,6-difluorobenzyl)propionamide] | 225 to 226
4 | O=C(CCc1oc(-n2cnc3ccccc32)nc1-c1ccc(Cl)cc1)NCc1cc(F)ccc1F [Example 158, 3-[2-(1H-benzimidazol-1-yl)-4-(4-chlorophenyl)-5-oxazolyl]-N-(2,5-difluorobenzyl)propionamide] | 197 to 198
5 | NC(=O)/C=C/c1oc(-c2ccccc2)nc1-c1ccc(Cl)cc1 [Example 55, (2E)-3-[4-(4-chlorophenyl)-2-phenyl-5-oxazolyl]propenamide] | 240 to 241
6 | CCOP(=O)(Cc1ccc(NC(=O)CCc2oc(-n3cnc4ccccc43)nc2-c2ccccc2)cc1)OCC | 148 to 149
7 | CCCc1nc(-c2ccc(Cl)cc2)c(CCC(N)=O)o1 [Example 29, 3-[4-(4-chlorophenyl)-2-propyl-5-oxazolyl]propionamide] | 150 to 151
8 | NC(=O)CCc1oc(Sc2ncccn2)nc1-c1ccc(Cl)cc1 [Example 33, 3-[4-(4-chlorophenyl)-2-(2-pyrimidinylsulfanyl)-5-oxazolyl]propionamide] | 194 to 195
9 | CCOP(=O)(Cc1ccc(NC(=O)CCc2sc(NC(=O)CCc3ccccc3)nc2-c2ccc(Cl)cc2)cc1)OCC | 208 to 209
10 | CCOP(=O)(Cc1ccc(NC(=O)CCc2oc(N3CCOCC3)nc2-c2ccc(Cl)cc2)cc1)OCC | 186 to 187
11 | CCOP(=O)(Cc1ccc(NC(=O)Cc2oc(-c3ccccc3)nc2-c2ccc(Cl)cc2)cc1)OCC | 173 to 174
12 | CCOP(=O)(Cc1ccc(NC(=O)CCc2sc(NC(=O)c3ccccc3)nc2-c2ccc(Cl)cc2)cc1)OCC | 171 to 172
13 | CCOP(=O)(Cc1ccc(NC(=O)CCc2oc(Sc3ncccn3)nc2-c2ccc(Cl)cc2)cc1)OCC | 146 to 147
14 | O=C(CCc1oc(-n2cnc3ccccc32)nc1-c1cccc(Cl)c1)N1CCC(O)CC1 [Example 257, 1-{3-[2-(1H-benzoimidazol-1-yl)-4-(3-chlorophenyl)-5-oxazolyl]propanoyl}-4-piperidinol] | 97 to 98
15 | CCOP(=O)(OCC)C(F)(F)c1ccc(NC(=O)CCc2oc(-n3cnc4ccccc43)nc2-c2ccc(Cl)cc2)cc1 | 155 to 156
16 | CCOP(=O)(Cc1ccc(NC(=O)CCc2sc(-n3cnc4ccccc43)nc2C(C)C)cc1)OCC | 171 to 172
17 | N#CCc1ccc(NC(=O)CCCCc2sc(-n3cnc4ccccc43)nc2-c2ccc(Cl)cc2)cc1 [Example 223, 5-[2-(1H-benzimidazol-1-yl)-4-(4-chlorophenyl)-5-thiazolyl]-N-[4-(cyanomethyl)phenyl]pentanamide] | 187 to 188
18 | CCOP(=O)(Cc1ccc(NC(=O)/C=C/c2sc(-n3cnc4ccccc43)nc2C)cc1)OCC | 150 to 151
19 | O=C(O)Cc1ccc(NC(=O)CCc2oc(-n3cnc4ccccc43)nc2-c2ccc(Cl)cc2)cc1 [Example 90, 4-({3-[2-(1H-benzimidazol-1-yl)-4-(4-chlorophenyl)-5-oxazolyl]propanoyl)amino}phenylacetic acid] | 247 to 248
20 | NC(=O)CCc1oc(N2CCN(c3ccccc3)CC2)nc1-c1ccc(Cl)cc1 [Example 31, 3-[4-(4-chlorophenyl)-2-(4-phenyl-1-piperazinyl)-5-oxazolyl]propionamide] | 187 to 188
21 | N#CCc1ccc(NC(=O)Cc2sc(-n3cnc4ccccc43)nc2-c2ccc(Cl)cc2)cc1 [Example 219, 2-[2-(1H-benzimidazol-1-yl)-4-(4-chlorophenyl)-5-thiazolyl]-N-[4-(cyanomethyl)phenyl]acetamide] | 245 to 246
22 | COc1ccc(-c2nc(-c3ccc(Cl)cc3)c(CCC(N)=O)o2)cc1 [Example 28, 3-[4-(4-chlorophenyl)-2-(4-methoxyphenyl)-5-oxazolyl]propionamide] | 215 to 216

Continued, values first:

Row | melting point [°C] | SMILES
23 | 144 to 145 | CCOP(=O)(Cc1ccc(NC(=O)CCc2sc(NC(=O)NCc3ccccc3)nc2-c2ccc(Cl)cc2)cc1)OCC
24 | 218 to 219 | Cc1ccc(C)c(CNC(=O)CCc2oc(-n3cnc4ccccc43)nc2-c2ccc(Cl)cc2)c1 [Example 181, 3-[2-(1H-benzimidazol-1-yl)-4-(4-chlorophenyl)-5-oxazolyl]-N-(2,5-dimethylbenzyl)propionamide]
25 | 220 to 222 | Nc1nc(-c2ccc(Cl)cc2)c(CCC(=O)N2CCS(=O)(=O)CC2)s1 [Example 227B, 4-{3-[2-amino-4-(4-chlorophenyl)-5-thiazolyl]propanoyl}thiomorpholine-1,1-dioxide]
26 | 137 to 138 | CCOP(=O)(Cc1ccc(NC(=O)CCc2oc(Cl)nc2-c2ccc(Cl)cc2)cc1)OCC
27 | 205 to 207 | O=C(CCc1oc(-n2cnc3ccccc32)nc1-c1ccc(Cl)cc1)NCc1cc(Cl)ccc1Cl [Example 174, 3-[2-(1H-benzimidazol-1-yl)-4-(4-chlorophenyl)-5-oxazolyl]-N-(2,5-dichlorobenzyl)propionamide]
28 | 240 to 241 | COc1ccc(NC(=O)CCc2oc(-n3cnc4ccccc43)nc2-c2ccc(Cl)cc2)cc1 [Example 114, 3-[2-(1H-benzimidazol-1-yl)-4-(4-chlorophenyl)-5-oxazolyl]-N-(4-methoxyphenyl)propionamide]
29 | 212 to 214 | N#CCc1ccc(NC(=O)CCc2oc(-c3ccccc3)nc2-c2ccc(Cl)cc2)cc1 [Example 105, 3-[4-(4-chlorophenyl)-2-phenyl-5-oxazolyl]-N-[4-(cyanomethyl)phenyl]propionamide]
30 | 250 to 251 | O=C(CCc1oc(-n2cnc3ccccc32)nc1-c1ccc(Cl)cc1)NCC(=O)Nc1ccccc1 [Example 149, 2-({3-[2-(1H-benzimidazol-1-yl)-4-(4-chlorophenyl)-5-oxazolyl]propanoyl}amino)-N-phenylacetamide]
31 | 216 to 217 | O=C(CCc1oc(-n2cnc3ccccc32)nc1-c1ccc(Cl)cc1)Nc1ccc(C2CCCCC2)cc1 [Example 116, 3-[2-(1H-benzimidazol-1-yl)-4-(4-chlorophenyl)-5-oxazolyl]-N-(4-cyclohexylphenyl)propionamide]
32 | 226 to 227 | O=C(CCc1oc(-n2cnc3ccccc32)nc1-c1ccc(Cl)cc1)Nc1ccccc1 [Example 120, 3-[2-(1H-benzimidazol-1-yl)-4-(4-chlorophenyl)-5-oxazolyl]-N-phenylpropionamide]
33 | 212 to 214 | CN(C)c1ccc(NC(=O)CCc2oc(-n3cnc4ccccc43)nc2-c2ccc(Cl)cc2)cc1 [Example 130, 3-[2-(1H-benzimidazol-1-yl)-4-(4-chlorophenyl)-5-oxazolyl]-N-[4-(dimethylamino)phenyl]propionamide]
34 | 174 to 175 | O=C(CCc1oc(-n2cnc3ccccc32)nc1-c1ccc(Cl)cc1)Nc1ccc(OC(F)(F)F)cc1 [Example 122, 3-[2-(1H-benzimidazol-1-yl)-4-(4-chlorophenyl)-5-oxazolyl]-N-[4-(trifluoromethoxy)phenyl]propionamide]
35 | 222 to 223 | O=C(CCc1oc(-n2cnc3ccccc32)nc1-c1ccc(Cl)cc1)NCc1ccccc1Cl [Example 134, 3-[2-(1H-benzimidazol-1-yl)-4-(4-chlorophenyl)-5-oxazolyl]-N-(2-chlorobenzyl)propionamide]
36 | 156 to 157 | O=C(CCc1oc(-n2cnc3ccccc32)nc1-c1ccc(Cl)cc1)NCCOc1ccccc1 [Example 162, 3-[2-(1H-benzimidazol-1-yl)-4-(4-chlorophenyl)-5-oxazolyl]-N-(2-phenoxyethyl)propionamide]
37 | 169 to 170 | COc1cc(CNC(=O)CCc2oc(-n3cnc4ccccc43)nc2-c2ccc(Cl)cc2)cc(OC)c1OC [Example 169, 3-[2-(1H-benzimidazol-1-yl)-4-(4-chlorophenyl)-5-oxazolyl]-N-(3,4,5-trimethoxybenzyl)propionamide]
38 | 206 to 207 | CCOP(=O)(Cc1ccc(NC(=O)CCc2sc(NC(=O)NC)nc2-c2ccc(Cl)cc2)cc1)OCC
39 | 198 to 200 | COc1cc(CNC(=O)CCc2oc(-n3cnc4ccccc43)nc2-c2ccc(Cl)cc2)cc(OC)c1 [Example 180, 3-[2-(1H-benzimidazol-1-yl)-4-(4-chlorophenyl)-5-oxazolyl]-N-(3,5-dimethoxybenzyl)propionamide]

— patent publication US7183276B2, “Azole compounds” (Takeda Pharmaceutical Company Limited, priority 2002, dated 2007)
